Results taken from patent US20130108573A1, “Bile Acid Recycling Inhibitors for Treatment of Hypercholemia and Cholestatic Liver Disease” (Lumena Pharmaceuticals, Inc., priority 2011, published 2013).

Legend:
Plasma Bile Acid Levels = test: Plasma bile acid levels of ZDF rats after ascending doses of SC-435 and LUM002; assay type: in vivo; settings: male ZDF rats n=4, end of second week
Protocol: FIG. 2. Plasma bile acid levels of ZDF rats after administration of ascending doses of SC-435 and LUM002. Male ZDF rats (n=4) were administered vehicle, SC-435 (1, 10 or 30 mg/kg) or LUM002 (0.3, 1, 3, 10 or 30 mg/kg) by oral gavage twice a day for 2 weeks. Plasma bile acid levels were determined at the end of the second week. Data are expressed as mean values ±SEM.
Male ZDF rats (n=4) were administered vehicle, SC-435 (1, 10 or 30 mg/kg) or LUM002 (0.3, 1, 3, 10 or 30 mg/kg) by oral gavage twice a day for 2 weeks. Plasma bile acid levels were determined at the end of the second week. […] Data are expressed as mean values ±SEM.

[1] = tested on: Fecal Bile Acid Excretion and Plasma Bile Acid Concentrations; test: ZDF rat study of 264W94: fecal bile acid excretion and plasma bile acid concentrations; assay type: in vivo, Zucker diabetic fatty rats; settings: male ZDF rats, 2 weeks
Protocol: Male Zucker diabetic fatty rats (ZDF/GmiCrl-fa/fa) were purchased from Charles River (Raleigh, N.C.) and housed under controlled conditions (12:12 light-dark cycle, 24° C. and 50% relative humidity) with free access to rodent food (Purina 5008, Harlan Teklad, Indianapolis, Ind.). All rats arrived at seven weeks of age (±3 days). After a one-week acclimation period, rats were anesthetized with isoflurane (Abbott Laboratories, IL) and tail-vein blood samples were collected at 9 am without fasting. Blood glucose levels were measured using a glucometer (Bayer, Leverkusen, Germany). In order to ensure balanced treatment groups, ZDF rats were assigned to six treatment groups based upon baseline glucose: vehicle (0.5% HPMC, 0.1% Tween80) and five doses of 264W94 (0.001, 0.01, 0.1, 1, 10 mg/kg). All treatments were given via oral gavage twice a day and animals were followed for two weeks with blood samples collected from tail vein at the end of each week at 9 am without fasting. Fecal samples were collected for 24 hours during the second week of treatment.
Non-esterified fatty acids (NEFA), bile acids, and bile acids in fecal extraction were measured using the Olympus AU640 clinical chemistry analyzer (Beckman Coulter, Irving, Tex.).

[2] = 264W94 0.001-10 mg/kg oral gavage twice a day

Compound: CCCC[C@]1(CC)CS(=O)(=O)c2ccc(N(C)C)cc2[C@@H](c2cccc(NC(=O)N[C@@H]3O[C@H](COS(=O)(=O)[O-])[C@@H](O)[C@H](OCc4ccccc4)[C@H]3O)c2)[C@H]1O.[K+] [LUM002]
- Plasma bile acid levels (Plasma Bile Acid Levels; LUM002 0.3, 1, 3, 10 or 30 mg/kg oral gavage twice a day for 2 weeks): decreased for all doses

Compound: CCCC[C@]1(CC)CS(=O)(=O)c2cc(OC)c(OC)cc2[C@@H](c2ccccc2)N1 [Compound 264W94]
- Fecal NEFA [1, 2]: slightly increased
- Plasma bile acid concentrations [1, 2]: decreased dose-dependently
- Fecal bile acid concentrations elevated compared to vehicle treated rats ([1]; 264W94 0.001-10 mg/kg oral gavage twice a day, 24 h feces in second week): up to 6.5 fold
- Bile acids in the feces ([1]; oral administration of 264W94 0.001-10 mg/kg twice a day): dose-dependently increased
- ED50 of fecal bile acid elevation ([1]; oral gavage twice a day): 0.17 mg/kg

Compound: CCCCC1(CCCC)CS(=O)(=O)c2ccc(N(C)C)cc2[C@@H](c2ccc(OCCCC[N+]34CCN(CC3)CC4)cc2)[C@H]1O.CS(=O)(=O)[O-] [SC-435, 1-[4-[4-[(4R,5R)-3,3-dibutyl-7-(dimethylamino)-2,3,4,5-tetrahydro-4-hydroxy-1,1-dioxido-1-benzothiepin-5-yl]phenoxy]butyl]-4-aza-1-azoniabicyclo[2.2.2]octane methanesulfonate salt, reference compound]
- Plasma bile acid levels (Plasma Bile Acid Levels; SC-435 1, 10 or 30 mg/kg oral gavage twice a day for 2 weeks): decreased for all doses
